# Data as given in patent publication US5688938A, “Calcium receptor-active molecules” (priority 1995, dated 1997).
# How the values were obtained:
# [1] = system: osteoclast calcium receptor; experiment: [Ca^2+]i (indo-1) in rat osteoclasts; type: cell-based
# [2] = system: parathyroid cell calcium receptor; experiment: Cl^- current in Xenopus oocytes injected with (bovine) parathyroid cell mRNA; type: cell-based; conditions: fendiline 100 μM
# Description: (§1) Following incubation, an oocyte was placed into a 100-μl plastic chamber and superfused with MBS at a flow rate of 0.5 ml/min using a peristaltic pump. Test molecules or inorganic polycations were added by rapidly moving the tubing into different buffers. Recording and current passing electrodes were constructed from thin-wall capillary tubing pulled to a resistance of 1-3 Mohms and filled with 3M KCl. […] Currents were recorded directly onto a strip chart recorder.
# [3] = serum/blood calcium, PTH, albumin and phosphate in rats, intraperitoneal; type: in vivo, rat; conditions: rat, i.p.
# Description: Compounds shown to activate the bovine parathyroid cell calcium receptor in vitro were tested for hypocalcemic activity in vivo. […] […] […] Serum total calcium, albumin and phosphate were measured by techniques well known in the art.
# [4] = target: T1, parathyroid cell calcium receptor (Bos taurus, UniProt P35384); experiment: cell-based; type: cell-based
# T1 sequence (P35384 21-1085 limits assumed): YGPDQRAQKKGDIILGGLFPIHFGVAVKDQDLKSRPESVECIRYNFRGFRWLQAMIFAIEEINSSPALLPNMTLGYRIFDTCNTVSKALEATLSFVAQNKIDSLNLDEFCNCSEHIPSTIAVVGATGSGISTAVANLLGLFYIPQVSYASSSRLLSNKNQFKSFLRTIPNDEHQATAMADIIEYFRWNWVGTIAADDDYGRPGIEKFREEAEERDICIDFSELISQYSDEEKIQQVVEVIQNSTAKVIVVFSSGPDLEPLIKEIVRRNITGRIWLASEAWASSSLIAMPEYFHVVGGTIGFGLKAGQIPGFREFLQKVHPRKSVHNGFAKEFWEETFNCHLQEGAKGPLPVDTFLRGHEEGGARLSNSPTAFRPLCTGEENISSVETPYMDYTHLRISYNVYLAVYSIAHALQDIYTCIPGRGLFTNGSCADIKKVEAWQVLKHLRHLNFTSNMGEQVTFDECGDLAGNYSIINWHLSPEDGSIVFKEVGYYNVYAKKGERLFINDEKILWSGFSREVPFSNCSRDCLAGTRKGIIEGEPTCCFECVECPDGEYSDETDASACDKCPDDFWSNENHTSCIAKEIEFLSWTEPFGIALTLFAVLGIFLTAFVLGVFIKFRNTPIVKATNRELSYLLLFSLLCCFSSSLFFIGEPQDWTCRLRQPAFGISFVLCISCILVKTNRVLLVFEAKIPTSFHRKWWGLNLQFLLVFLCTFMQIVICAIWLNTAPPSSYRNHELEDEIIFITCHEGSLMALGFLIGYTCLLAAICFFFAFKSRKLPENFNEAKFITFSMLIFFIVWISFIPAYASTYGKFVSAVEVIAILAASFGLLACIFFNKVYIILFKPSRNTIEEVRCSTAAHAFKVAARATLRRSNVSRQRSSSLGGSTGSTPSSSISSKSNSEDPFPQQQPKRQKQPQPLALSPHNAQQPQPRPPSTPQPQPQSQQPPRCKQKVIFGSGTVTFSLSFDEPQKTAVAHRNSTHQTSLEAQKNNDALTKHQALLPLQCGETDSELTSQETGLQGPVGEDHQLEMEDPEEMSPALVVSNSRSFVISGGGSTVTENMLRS
# Description: For example,.bovine parathyroid cells loaded with fura-2 are initially suspended in buffer containing 0.5 mM CaCl2. A test substance is added to the cuvette in a small volume (5-15 μl) and changes in the fluorescence signal are measured. Cumulative increases in the concentration of the test substance are made in the cuvette until some predetermined concentration is achieved or no further changes in fluorescence are noted.
# (§2) This section describes procedures used to obtain and treat parathyroid cells from calves and humans. […] Human parathyroid glands, were obtained from patients undergoing surgical removal of parathyroid tissue for primary or uremic hyperparathyroidism (uremic HPT), and were treated similarly to bovine tissue.
# Glands were trimmed of excess fat and connective tissue and then minced with fine scissors into cubes approximately 2-3 mm on a side. Dissociated parathyroid cells were prepared by collagenase digestion and then purified by centrifugation in Percoll buffer. The resultant parathyroid cell preparation was essentially devoid of red blood cells, adipocytes, and capillary tissue as assessed by phase contrast microscopy and Sudan black B staining. Dissociated and purified parathyroid cells were present as small clusters containing 5 to 20 cells.
# The cells were then transferred to plastic flasks (75 or 150 cm^2 ; Falcon) and incubated overnight at 37° C. in a humid atmosphere of 5% CO2. No serum is added to these overnight cultures, since its presence allows the cells to attach to the plastic, undergo proliferation, and dedifferentiate. Cells cultured under the above conditions were readily removed from the flasks by decanting, and show the same viability as freshly prepared cells.
# The cells were then pelleted, resuspended in the same buffer, but lacking the ester, and incubated a further 15 minutes at 37° C. The cells were subsequently washed twice with PCB containing 0.5 mM CaCl2 and 0.5% BSA and maintained at room temperature (about 20° C.). Immediately before use, the cells were diluted five-fold with prewarmed 0.5mM CaCl2 -PCB to obtain a final BSA concentration of 0.1%. The concentration of cells in the cuvette used for fluorescence recording was 1-2×10^6 /ml.
# The fluorescence of indicator-loaded cells was measured at 37° C. in a spectrofluorimeter (Biomedical Instrumentation Group, University of Pennsylvania, Philadelphia, Pa.) equipped with a thermostated cuvette holder and magnetic stirrer using excitation and emission wavelengths of 340 and 510 nm, respectively. […] Leakage of dye is dependent on temperature and most occurs within the first 2 minutes after warming the cells in the cuvette. Dye leakage increases only very slowly thereafter. To correct the calibration for dye leakage, cells were placed in the cuvette and stirred at 37° C. for 2-3 minutes. The cell suspension was then removed, the cells pelleted, and the supernatant returned to a clean cuvette. […] This estimate was subtracted from the apparent Fmin.
# Dissociated bovine parathyroid cells were purified on gradients of Percoll and cultured overnight in serum-free medium. […] That is,
# [5] = target: T2, calcium receptor (Homo sapiens, UniProt P41180); experiment: Xenopus oocytes injected with human parathyroid mRNA; type: cell-based
# T2 construct: Xenopus oocytes injected with poly(A)+ mRNA from human hyperplastic parathyroid tissue
# T2 sequence (P41180 20-1078): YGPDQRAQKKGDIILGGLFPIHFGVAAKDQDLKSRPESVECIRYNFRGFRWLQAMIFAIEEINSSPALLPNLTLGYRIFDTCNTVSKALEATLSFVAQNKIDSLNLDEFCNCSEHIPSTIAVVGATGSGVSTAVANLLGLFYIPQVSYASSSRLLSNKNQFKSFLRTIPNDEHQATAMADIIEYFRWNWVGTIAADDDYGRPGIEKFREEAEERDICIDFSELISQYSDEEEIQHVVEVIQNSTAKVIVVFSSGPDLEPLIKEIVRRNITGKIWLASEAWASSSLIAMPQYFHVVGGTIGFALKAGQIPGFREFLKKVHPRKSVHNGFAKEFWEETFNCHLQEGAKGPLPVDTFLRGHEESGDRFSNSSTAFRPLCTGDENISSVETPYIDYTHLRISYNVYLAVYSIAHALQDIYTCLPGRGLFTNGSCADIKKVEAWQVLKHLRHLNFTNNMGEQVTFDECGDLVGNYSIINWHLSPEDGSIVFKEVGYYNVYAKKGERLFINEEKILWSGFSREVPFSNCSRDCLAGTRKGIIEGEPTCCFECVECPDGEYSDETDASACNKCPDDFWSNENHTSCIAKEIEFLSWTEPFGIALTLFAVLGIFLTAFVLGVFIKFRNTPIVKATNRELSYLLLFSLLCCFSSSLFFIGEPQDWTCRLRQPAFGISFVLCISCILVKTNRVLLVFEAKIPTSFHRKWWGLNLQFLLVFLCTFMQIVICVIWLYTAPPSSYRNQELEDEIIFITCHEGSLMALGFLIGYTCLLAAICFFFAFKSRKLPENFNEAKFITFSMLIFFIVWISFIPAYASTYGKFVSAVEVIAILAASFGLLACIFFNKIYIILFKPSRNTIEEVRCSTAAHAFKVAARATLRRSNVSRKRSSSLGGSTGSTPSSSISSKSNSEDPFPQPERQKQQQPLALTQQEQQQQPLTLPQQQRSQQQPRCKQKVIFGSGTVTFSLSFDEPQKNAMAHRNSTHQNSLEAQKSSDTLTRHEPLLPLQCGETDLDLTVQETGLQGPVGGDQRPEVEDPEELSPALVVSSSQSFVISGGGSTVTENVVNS
# Description: Oocytes were injected with poly(A)+-enriched mRNA from human parathyroid tissue (hyperplastic glands from a case of secondary HPT).
# as §1
# Using this screen allows one to test for an action directly on the calcium receptor. Oocytes expressing the calcium receptor also responded to several molecules active on intact parathyroid cells when screened as follows. […] This offers rather compelling evidence showing that these molecules act on the calcium receptor or on some other protein intimately associated with its function.
# [6] = net positive charge; type: physicochemical; conditions: Table 1; at physiological pH
# [7] = system: L-type voltage-sensitive Ca^2+ channel; experiment: block of extracellular Ca^2+-induced increases in [Ca^2+]i in rMTC 6-23 cells; type: cell-based, rat; conditions: read-out: IC50 for block of extracellular Ca^2+-induced increases in [Ca^2+]i
# [8] = target: T3, bovine parathyroid cell calcium receptor (Bos taurus, UniProt P35384); experiment: Cl^- current in Xenopus oocytes expressing BoPCaR 1; type: cell-based; conditions: 1 mM extracellular Ca^2+
# T3 construct: expressed in transfected cells; host or cells: Xenopus laevis oocytes injected with cRNA from BoPCaR 1
# T3 sequence (P35384 21-1085 limits assumed): T1 sequence (P35384 21-1085 limits assumed)
# Description: These responses are mediated by the following series of biochemical events:
# Xenopus oocytes were injected with BoPCaR 1, the 5.3 Kb cDNA encoding a bovine parathyroid cell calcium receptor as described in Example 25. After two to three days, Cl^- currents were examined in the oocytes using a two-electrode voltage clamp.
# Xenopus oocytes were injected with BoPCaR 1 as described in Example 25. After two to three days, Cl^- currents were examined in the oocytes using two electrode voltage clamp.
# [9] = target: T1, parathyroid cell calcium receptor; experiment: block of extracellular Ca^2+-evoked increases in [Ca^2+]i in bovine parathyroid cells (calcilytic); type: cell-based
# [10] = system: rat osteoclasts; experiment: inhibition of bone resorption (pit formation on bovine cortical bone slices); type: cell-based; conditions: Osteoclast, 24 hours, read-out: IC50 for inhibition of bone resorption in vitro
# Description: This was done by morphometric analysis of pit formation on thin slices of bovine cortical bone using scanning electron microscopy.
# [11] = system: bovine parathyroid cells; experiment: PTH secretion from bovine parathyroid cells; type: cell-based
# Description: In most experiments, cells loaded with fura-2 were also used in studies of PTH secretion.
# PTH secretion was measured by first suspending cells in PCB containing 0.5 mM CaCl2 and 0.1% BSA.
# [12] = target: T4, parathyroid cell calcium receptor (Homo sapiens, UniProt P41180); experiment: [Ca^2+]i (fura-2) in human parathyroid cells; type: cell-based; conditions: 1 μM
# T4 construct: Dissociated parathyroid cells were prepared from a parathyroid adenoma obtained by surgery from a patient with primary hyperparathyroidism; endogenous in cells; host or cells: primary dissociated human parathyroid cells (adenoma or hyperplastic tissue from surgery)
# T4 sequence (P41180 20-1078): T2 sequence (P41180 20-1078)
# Description: as §2
# Dissociated parathyroid cells were prepared from a parathyroid adenoma obtained by surgery from a patient with primary hyperparathyroidism.
# [13] = system: bovine parathyroid cells; experiment: inositol phosphate formation in bovine parathyroid cells; type: cell-based
# Description: This section describes procedures measuring inositol phosphate formation. Membrane phospholipids were labeled by incubating parathyroid cells with 4 μCi/ml ^3 H-myo-inositol for 20-24 hours. Cells were then washed and resuspended in PCB containing 0.5 mM CaCl2 and 0.1% BSA. Incubations were performed in microfuge tubes in the absence or presence of various concentrations of organic polycation for different times. Reactions were terminated by the addition of 1 ml chloroform-methanol-12N HCl (200:100:1; v/v/v). Aqueous phytic acid hydrolysate (200 μl; 25 μg phosphate/tube). The tubes were centrifuged and 600 μl of the aqueous phase was diluted into 10 ml water.
# Inositol phosphates were separated by ion-exchange chromatography using AG1-X8 in either the chloride- or formate-form. When only IP3 levels were to be determined, the chloride-form was used, whereas the formate form was used to resolve the major inositol phosphates (IP3, IP2, and IP1). For determination of just IP3, the diluted sample was applied to the chloride-form column and the column was washed with 10 ml 30 mM HCl followed by 6 ml 90 mM HCl and the IP3 was eluted with 3 ml 500 mM HCl. The last eluate was diluted and counted. […] The eluted samples from the formate columns were rotary evaporated, the residues brought up in cocktail, and counted.
# The isomeric forms of IP3 were evaluated by HPLC. […]
# [14] = system: bovine parathyroid cells; type: cell-based
# Description: This section describes measuring cyclic AMP levels. Cells were incubated as above for PTH secretion studies and at the end of the incubation, a 0.15-ml sample was taken and transferred to 0.85 ml of hot (70° C.) water and heated at this temperature for 5-10 minutes. The tubes were subsequently frozen and thawed several times and the cellular debris sedimented by centrifugation. Portions of the supernatant were acetylated and cyclic AMP concentrations determined by radioimmunoassay.
# Bovine parathyroid cells were cultured for 16 hours with or without 100 ng/ml pertussis toxin. […] Each value is the mean±SEM of three experiments.
compound,measurement,setting,value
CC(NCCCc1ccccc1)c1ccc(Cl)cc1 (racemic) [Compound 1H],EC50,"[1]; Table 6, rat osteoclasts",250 µM
"CC(NCCC(c1ccccc1)c1ccccc1)c1ccccc1 (racemic) [Fendiline, reference compound]",Cl^- current in oocytes,[2],oscillatory increases
COc1cccc(C(C)NCCCc2ccccc2)c1 (racemic) [NPS 467],reduction in serum or whole blood Ca^2+,[3],dose-dependent reduction in serum or whole blood Ca^2+
same,time to return toward control levels,[3],24 h
same,change in serum albumin or phosphate,[3]; all doses,no change in serum albumin or phosphate levels
same,circulating PTH,[3]; preliminary studies,dose-dependent reduction in circulating levels of PTH
"C1CNCCNCCNCCNCCNCCN1 [Hexacyclen, 1,4,7,10,13,16-hexaaza-cyclooctadecane, reference compound]",potency relative to NPS 383,[4]; [Ca^2+]i,7 -fold
same,potency relative to pentaethylenehexamine,[4]; [Ca^2+]i,25 -fold
same,effective concentration for mobilization of intracellular Ca^2+ in oocytes,[5],135 µM
same,Net (+) Charge,[6],+6
NCCCNCCCCNCCCNCCCN(O)CCCNC(=O)Cc1c[nH]c2cccc(O)c12 [NPS 015],IC50,[7],3 µM
"NCCCNCCCCNCCCNCCCN(O)CCCNC(=O)Cc1c[nH]c2ccccc12 [NPS 017, reference compound]",Cl^- current,[8],oscillatory increases in the Cl^- current
NCCCCCCCCCCCCNC(=O)Cc1ccc(O)cc1O [NPS 021],change in [Ca^2+]i by the compound itself,[9]; 0.5 mM extracellular Ca^2+,does not by itself cause any change in [Ca^2+ ]i
same,IC50,[9]; bovine parathyroid cells,~200 µM
same,IC100,[9]; read-out: concentration abolishing the increase in [Ca^2+]i evoked by extracellular Ca^2+,~500 µM
CC(Cc1ccccc1)NCCC(c1ccccc1)c1ccccc1 (centres unmarked) [Prenylamine],mobilization of [Ca^2+]i in rat osteoclasts,[1]; with or without 1 mM extracellular CaCl2,mobilization of [Ca^2+ ]i
same,IC50,[10],10 µM
NCCCCNCCCN [Spermidine],increase in [Ca^2+]i relative to maximal extracellular Ca^2+,"[1]; osteoclasts, 1000 µM",about 10%
same,Net (+) Charge,[6],+3
NCCCNCCCCNCCCN [Spermine],inhibition of PTH secretion,[11],inhibited PTH secretion to the same extent as extracellular Ca^2+
COCCOC(=O)C1=C(C)NC(C)=C(C(=O)OC(C)C)C1c1cccc([N+](=O)[O-])c1 (centres unmarked) [nimodipine],effect on sustained increases in [Ca^2+]i elicited by extracellular Mg^2+,[12],not affected by nimodipine
protamine,increases in [Ca^2+]i,[4],rapid and transient increases in [Ca^2+ ]i
same,inhibition of PTH secretion,[11],inhibited PTH secretion to the same extent as extracellular Ca^2+
same,formation of IP3,[13],rapid (within 30 seconds) increase
same,cyclic AMP (+PTx),[14],89 ± 9 % of control
same,"cyclic AMP (control, without pertussis toxin)","[14]; 10 μM isoproterenol, 2.0 mM Ca^2+, or 0.5 mM Ca^2+ with 200 μM spermine, 30 μM neomycin B or 2 μg/ml protamine, mean±SEM of three experiments",20 ± 4 % of control
